Assay results taken from article PMC6218659, “Structures of DPAGT1 Explain Glycosylation Disease Mechanisms and Advance TB Antibiotic Design” (Cell, 2018).
Positions count from the first letter of the chain named. In brackets after ≈: the same amount, converted by molar mass. Where a name gives a salt, the structure may show the parent alone.

Tests used:
[1] = biological target: T1, DPAGT1 Arg301His (Homo sapiens, UniProt Q9H3H5, R301H); experiment: Thermostability assay (label free differential scanning fluorimetry); type: binding, H. sapiens; details: 50 μM compound
T1 construct: combined with the LIC-adapted primers to amplify the complete DPAGT1 gene, including the desired mutations; 6xHis purification tag with TEV site (N, cleaved yes); made in house; host or cells: Spodoptera frugiperda Sf9 insect cells (baculovirus)
T1 sequence (Q9H3H5 1-408 R301H): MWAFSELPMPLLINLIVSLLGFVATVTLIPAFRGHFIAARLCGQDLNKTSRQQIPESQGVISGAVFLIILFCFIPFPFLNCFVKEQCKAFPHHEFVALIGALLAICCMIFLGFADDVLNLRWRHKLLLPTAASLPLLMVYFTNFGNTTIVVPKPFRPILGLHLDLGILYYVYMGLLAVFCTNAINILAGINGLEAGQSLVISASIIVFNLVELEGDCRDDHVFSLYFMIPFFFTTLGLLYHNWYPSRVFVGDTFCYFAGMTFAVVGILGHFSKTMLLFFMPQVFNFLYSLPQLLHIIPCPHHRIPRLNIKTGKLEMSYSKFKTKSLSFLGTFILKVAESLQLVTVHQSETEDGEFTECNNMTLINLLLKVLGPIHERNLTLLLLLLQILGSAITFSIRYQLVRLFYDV
Description: (§1) Samples with a volume of 40 μl were prepared containing 0.5 mg/ml protein and 50 μM compound or 5% DMSO in GFB. A glass capillary was dipped into each sample, with the capillary held horizontally to ensure that the capillary was full of the sample. The capillaries were placed on the capillary holder on the Nanotemper Prometheus. Technical triplicates of each sample were prepared, and each experiment was conducted with biological triplicates of each protein. PR.ThermControl software was used to run the experiment and analyse the data. A melting curve from 20 °C – 95 °C at 5 °C/min was performed. The minimum of the first derivative of the 330/350nm ratio was used to determine the Tm1/2.

[2] = biological target: T2, DPAGT1 Tyr170Cys (Homo sapiens, UniProt Q9H3H5, Y170C); experiment: as above; type: binding, H. sapiens; details: 50 μM compound
T2 construct: combined with the LIC-adapted primers to amplify the complete DPAGT1 gene, including the desired mutations; 6xHis purification tag with TEV site (N, cleaved yes); made in house; host or cells: Spodoptera frugiperda Sf9 insect cells (baculovirus)
T2 sequence (Q9H3H5 1-408 Y170C): T1 sequence (Q9H3H5 1-408 R301H) with Y170C, H301R
Description: as §1

[3] = biological target: T3, DPAGT1 (Homo sapiens, UniProt Q9H3H5); experiment: Radiolabeled substrate enzyme activity assay; type: biochemical, H. sapiens; details: purified DPAGT1 enzyme, Figure 6F
T3 construct: H. sapiens DPAGT1 (1-408, N-terminal 6 x HIS tag, TEV cleavage site); 6xHis purification tag with TEV site (N, cleaved yes); made in house; host or cells: Spodoptera frugiperda Sf9 insect cells (baculovirus)
T3 sequence (Q9H3H5 1-408): T1 sequence (Q9H3H5 1-408 R301H) with H301R
Description: 2 μl of 2 μM DPAGT1 WT or mutant proteins in GFB buffer supplemented with 5mM extra MgCl2, 1% OGNG/CHS/cardiolipin and dolichyl monophosphate was combined with 2 μl of UDP-N-acetyl [1-14C] […] The reaction was terminated by the addition of 6 μl of 100% methanol and immediately transferred onto ice. 1 μl of sample was spotted onto a silica coated TLC plate in triplicate and run with a mobile phase consisting of chloroform, methanol, and water at a 65:25:4 ratio respectively. After the run, the TLC plate was dried thoroughly, wrapped in cling film, incubated with a phosphor imaging substrate for 4 days, then phosphor imaged using a Biorad. The pixel density of the spots corresponding to the hydrophobic product was divided by combined pixel density of the product and the substrate and multiplied by the known concentration of substrate added to ascertain the amount of product formed.

[4] = tested on: E. coli ATCC25922; experiment: Micro-broth dilution and drop plate antimicrobial susceptibility test; type: cell-based; details: Escherichia coli
Description: (§2) In a sterile 96-well plate, serial dilutions were made with the test substance to final volume of 50 μl. Inoculum was then prepared in Mueller-Hinton broth to 0.5 McFarland and diluted before adding 50 μl to the well to make ∼1x10^5 CFU/ml. The culture plate was incubated at 35 °C for 20-24 hrs. A positive growth control and sterility wells were also prepared along with the culture wells. Absorbance at OD600 was taken using BMG Labtech SPECTROstar Omega spectrophotometer. MIC is determined by the lowest concentration without growth. IC50 is determined from plotting a dose-response curve, see Data Analysis below. To determine the MBC, using a multi-channel pipette, 1 μl of culture broth was taken from the same 96-well microdilution growth plate and carefully inoculated on surface of MH agar plate. The plate is then incubated for additional 20 hrs. at 35 °C. The MBC value is the lowest concentration without observed growth on the agar.

[5] = tested on: P. aeruginosa ATCC27853; experiment: as above; type: cell-based; details: Pseudomonas aeruginosa
Description: as §2

[6] = tested on: S. aureus ATCC29219; experiment: as above; type: cell-based; details: Staphylococcus aureus
Description: as §2

[7] = Human plasma protein binding assay; type: in vitro ADME; details: read-out: human plasma protein binding, bound (converted)
[8] = tested on: Mtb-GFP; type: cell-based, Mycobacterium tuberculosis
[9] = tested on: Mtb H37Rv ATCC27294; experiment: Macromolecular incorporation assay (radiolabeled glucosamine); details: within 48 h, 10x MIC

Structure (SMILES) | Thermostability (Tm1/2) with added compound [1] | Thermostability (Tm1/2) with added compound [2] | effect on DPAGT1 catalytic activity [3] | IC50 [4] | MBC [4] | MIC [4] | IC50 [5] | MBC [5] | MIC [5] | IC50 [6] | MBC [6] | MIC [6] | fraction unbound [7] | extracellular release of GFP (lysis) [8] | glucosamine incorporation [9]
N[C@H]1[C@H](O[C@H]2O[C@H](CO)[C@@H](O)[C@H](O)[C@H]2N)O[C@H](C[C@@H](O)[C@H]2O[C@@H](n3ccc(=O)[nH]c3=O)[C@H](O)[C@@H]2O)[C@H](O)[C@@H]1O [TUN, α-D-glucosamine-(1”-11')-tunicamyl uracil dihydrochloride] | 81.2±0.5 °C | 83.1±0.8 °C |  |  |  |  |  |  |  |  |  |  |  |  | 
CCCCCCCC(=O)N[C@H]1[C@H](O[C@H]2O[C@H](CO)[C@@H](O)[C@H](O)[C@H]2NC(=O)CCCCCCC)O[C@H](C[C@@H](O)[C@H]2O[C@@H](n3ccc(=O)[nH]c3=O)[C@H](O)[C@@H]2O)[C@H](O)[C@@H]1O [TUN-8,8, Di-N-octanoyl-tunicamycin] |  |  | negligible effect | 123 µg/mL (≈ 150 µM) | 400 µg/mL (≈ 488 µM) | 330 ± 120 µg/mL (≈ 403 µM) | 46.6 µg/mL (≈ 56.9 µM) | > 400 µg/mL | 83 ± 29 µg/mL (≈ 101 µM) | 58.4 µg/mL (≈ 71.3 µM) | 400 µg/mL (≈ 488 µM) | 170 ± 60 µg/mL (≈ 208 µM) | 0.018 | lytic effects | reduced
